Data published in US10633407B2, “14-membered ketolides and methods of their preparation and use” (President and Fellows of Harvard College, priority 2014, dated 2020).

Experiments:
Assay in all cases: CLSI broth dilution MIC determination
Assay type in all cases: cell-based
S. pyogenes ATCC 19615 = conditions: S. pyogenes ATCC 19615; Gram-positive
A. baumannii IMP-4 = conditions: Gram-negative
[1] = test system: E. faecalis Vancomycin-resistant; conditions: E. faecalis Vancomycin-resistant; Gram-positive
E. faecalis ATCC 29212 = conditions: E. faecalis ATCC 29212; Gram-positive
[2] = test system: A. baumannii chromosomal class C; conditions: Gram-negative
[3] = test system: S. pyogenes Macrolide-resistant; conditions: S. pyogenes Macrolide-resistant; Gram-positive
K. pneumoniae SHV-12 = conditions: Gram-negative
K. pneumoniae KPC-2 = conditions: Gram-negative
[4] = test system: H. influenzae Erythro >4, Azithro 1; conditions: H. influenzae Erythro >4, Azithro 1; Gram-negative
From the text: MIC data was collected for the novel macrolides that this platform has produced against over 21 unique strains of B. subtilis, E. coli, S. aureus, S. pneumoniae, and H. influenzae, including several multidrug-resistant strains, with a special focus on macrolide resistant mechanisms (vide supra). […] CLSI standard procedures for broth dilution MIC determination were used. […] These genotypes can be constitutive or inducible.

[5] = test system: A. baumannii imipenem-resistant; conditions: Gram-negative
K. pneumoniae ATCC 10031 = test system: K. pneumoniae ATCC 10031
P. aeruginosa ATCC 27853 = test system: P. aeruginosa ATCC 27853
[6] = test system: P. aeruginosa HPA101-1477; conditions: Gram-negative
S. aureus USA600, GISA = conditions: S. aureus USA600, GISA; Gram-positive
From the text: (§1) MIC data was collected for the novel macrolides that this platform has produced against over 21 unique strains of B. subtilis, E. coli, S. aureus, S. pneumoniae, and H. influenzae, including several multidrug-resistant strains, with a special focus on macrolide resistant mechanisms (vide supra). Azithromycin (Azithro) and Solithromycin (Solithro) were included as a control macrolides in many cases. CLSI standard procedures for broth dilution MIC determination were used. […] These genotypes can be constitutive or inducible.

S. aureus ATCC 29213 = test system: S. aureus ATCC 29213
From the text: as §1

S. pneumoniae ATCC 49619 = conditions: S. pneumoniae ATCC 49619; Gram-positive
From the text: as §1

E. coli CTX-M-14 = conditions: Gram-negative
From the text: as §1

S. aureus MRSA: USA300 = test system: S. aureus MRSA: USA300
From the text: as §1

S. aureus erm A genotype = conditions: S. aureus erm A genotype; Gram-positive
From the text: as §1

[7] = test system: S. pneumoniae mef A genotype (second strain so labelled); conditions: Gram-positive
From the text: as §1

E. coli ATCC 25922 = test system: E. coli ATCC 25922
From the text: as §1

H. influenzae ATCC49247 = conditions: Gram-negative
From the text: as §1

K. pneumoniae TEM-10 = conditions: Gram-negative
From the text: as §1

E. coli NDM-1 = conditions: Gram-negative
From the text: as §1

E. coli TEM-1 = conditions: E. coli TEM-1; Gram-negative
From the text: as §1

S. aureus MRSA: USA100 = conditions: S. aureus MRSA: USA100; Gram-positive
From the text: as §1

A. baumannii ATCC 19606 = test system: A. baumannii ATCC 19606
[8] = test system: K. pneumoniae MP-546 Clinical-MDR
[9] = test system: P. aeruginosa MP-8 PAO1:mex (mex-oprM-deletion); conditions: P. aeruginosa MP-8, PAO1:mex, mex-oprM-deletion
P. aeruginosa MP-7 PAO1 = test system: P. aeruginosa MP-7 PAO1
[10] = test system: A. baumannii MP-577 Clinical-AZT low
[11] = test system: A. baumannii MP-576 Clinical-MDR
[12] = test system: K. pneumoniae MP-548 clinical
[13] = test system: S. aureus (MRSA) MP-513 ST-228 cErm (Clinical-cErm)
From the text: as §1

E. coli MP-541 clinical = test system: E. coli MP-541 clinical
From the text: as §1

[14] = test system: S. aureus MP-17 ATCCBAA-977 (BAA 977 iErm); conditions: S. aureus MP-17, ATCCBAA-977, iErm
From the text: as §1

[15] = test system: E. coli MP-9 ATCC25922:tolC; conditions: E. coli MP-9, ATCC25922:tolC
From the text: as §1

[16] = test system: E. coli MP-532 clinical-cErmB; conditions: E. coli MP-532, clinical-cErmB
From the text: as §1

[17] = K. pneumoniae ATCC 10031, Gram-negative
[18] = P. aeruginosa ATCC 27853, Gram-negative
[19] = S. aureus ATCC 29213, Gram-positive
[20] = S. aureus MRSA: USA300, Gram-positive
[21] = E. coli ATCC 25922, Gram-negative
[22] = A. baumannii ATCC 19606, Gram-negative
[23] = K. pneumoniae ATCC 10031 (MP-14)
[24] = P. aeruginosa ATCC 27853 (MP-3)
[25] = S. aureus MRSA: USA300 (MP-549, msr(a))
[26] = A. baumannii ATCC 19606 (MP-15)

Measured: MIC

CC[C@H]1OC(=O)[C@@](C)(F)C(=O)[C@H](C)[C@@H](O[C@@H]2OC(C)CC(N(C)C)C2O)[C@](C)(OC)C[C@@H](C)C(=O)[C@H](C)[C@H]2N(C/C=C/Cn3cc(-c4cccc(N)c4)nn3)C(=O)O[C@]12C (stereo partly drawn) [FSM-11563]
0.125 µg/mL: S. aureus MRSA: USA300; [20]
≤ 0.0312 µg/mL: S. pyogenes ATCC 19615 | E. faecalis ATCC 29212 | [3] | S. pneumoniae ATCC 49619 | [7]
4 µg/mL: [1] | [4] | [5] | K. pneumoniae ATCC 10031; [17] | A. baumannii ATCC 19606; [22]
16 µg/mL: E. coli ATCC 25922; [21] | E. coli TEM-1
0.0625 µg/mL: S. aureus ATCC 29213; [19]
2 µg/mL: [2] | H. influenzae ATCC49247
> 32 µg/mL: A. baumannii IMP-4 | K. pneumoniae SHV-12 | K. pneumoniae KPC-2 | [6] | S. aureus USA600, GISA | E. coli CTX-M-14 | S. aureus erm A genotype | E. coli NDM-1 | S. aureus MRSA: USA100
32 µg/mL: P. aeruginosa ATCC 27853; [18] | K. pneumoniae TEM-10

CCC1OC(=O)C(C)(F)C(=O)C(C)C(OC2OC(C)CC(N(C)C)C2O)C(C)(OC)CC(C)C(=O)C(C)C2N(CC=C=Cn3cc(-c4ccnc(N)n4)nn3)C(=O)OC12C (stereo not drawn) [FSM-22737]
64 µg/mL: [12]
2 µg/mL: [15]
8 µg/mL: K. pneumoniae ATCC 10031; [23]
0.25 µg/mL: S. aureus ATCC 29213; S. aureus ATCC 29213 (MP-12) | S. aureus MRSA: USA300; [25] | [14]
32 µg/mL: [10]
>64 µg/mL: [8] | P. aeruginosa MP-7 PAO1 | [11] | P. aeruginosa ATCC 27853; [24] | [13] | [16]
16 µg/mL: [9] | E. coli MP-541 clinical | E. coli ATCC 25922; E. coli ATCC 25922 (MP-4) | A. baumannii ATCC 19606; [26]

CCC1OC(=O)C(C)(F)C(=O)C(C)C(OC2OC(C)CC(N(C)C)C2O)C(C)(OC)CC(C)C(=O)C(C)C2N(CC=C=Cn3cc(-c4nccc(N)n4)nn3)C(=O)OC12C (stereo not drawn) [FSM-22738]
8 µg/mL: [9] | E. coli ATCC 25922; E. coli ATCC 25922 (MP-4) | A. baumannii ATCC 19606; [26]
>64 µg/mL: [8] | [11] | [16]
64 µg/mL: P. aeruginosa MP-7 PAO1 | [12] | P. aeruginosa ATCC 27853; [24]
4 µg/mL: K. pneumoniae ATCC 10031; [23]
0.25 µg/mL: S. aureus ATCC 29213; S. aureus ATCC 29213 (MP-12) | S. aureus MRSA: USA300; [25] | [14]
32 µg/mL: [10] | [13]
16 µg/mL: E. coli MP-541 clinical
1 µg/mL: [15]

CCC1OC(=O)C(C)(F)C(=O)C(C)C(OC2OC(C)CC(N(C)C)C2O)C(C)(OC)CC(C)C(=O)C(C)C2N(CC=C=Cn3cc(-c4cnccn4)nn3)C(=O)OC12C (stereo not drawn) [FSM-22740]
64 µg/mL: [10] | [13]
2 µg/mL: [15]
8 µg/mL: K. pneumoniae ATCC 10031; [23]
16 µg/mL: [9] | E. coli MP-541 clinical | E. coli ATCC 25922; E. coli ATCC 25922 (MP-4) | A. baumannii ATCC 19606; [26]
>64 µg/mL: [8] | P. aeruginosa MP-7 PAO1 | [11] | [12] | P. aeruginosa ATCC 27853; [24] | [16]
0.25 µg/mL: S. aureus ATCC 29213; S. aureus ATCC 29213 (MP-12) | S. aureus MRSA: USA300; [25] | [14]

CC[C@H]1OC(=O)[C@@](C)(F)C(=O)[C@H](C)[C@@H](O[C@@H]2OC(C)CC(N(C)C)C2O)[C@](C)(OC)C[C@@H](C)C(=O)[C@H](C)[C@H]2N(C/C=C/Cn3cc(-c4ccccn4)nn3)C(=O)O[C@]12C (stereo partly drawn) [FSM-100383]
< 0.0312 µg/mL: S. pyogenes ATCC 19615 | E. faecalis ATCC 29212 | [3] | S. aureus ATCC 29213; [19] | S. pneumoniae ATCC 49619 | [7]
32 µg/mL: E. coli NDM-1
2 µg/mL: K. pneumoniae ATCC 10031; [17]
4 µg/mL: A. baumannii ATCC 19606; [22]
8 µg/mL: [2] | [5] | E. coli ATCC 25922; [21]
16 µg/mL: K. pneumoniae TEM-10 | E. coli TEM-1
> 32 µg/mL: A. baumannii IMP-4 | [1] | K. pneumoniae SHV-12 | K. pneumoniae KPC-2 | P. aeruginosa ATCC 27853; [18] | [6] | S. aureus USA600, GISA | E. coli CTX-M-14 | S. aureus erm A genotype | S. aureus MRSA: USA100
0.5 µg/mL: [4] | S. aureus MRSA: USA300; [20] | H. influenzae ATCC49247

CC[C@H]1OC(=O)[C@@](C)(F)C(=O)[C@H](C)[C@@H](O[C@@H]2OC(C)CC(N(C)C)C2O)[C@](C)(OC)C[C@@H](C)C(=O)[C@H](C)[C@H]2N(C/C=C/Cn3cc(-c4cccc(N)n4)nn3)C(=O)O[C@]12C (stereo partly drawn) [FSM-100407]
16 µg/mL: [1] | E. coli ATCC 25922; [21]
32 µg/mL: P. aeruginosa ATCC 27853; [18] | K. pneumoniae TEM-10
8 µg/mL: [2] | [5] | A. baumannii ATCC 19606; [22]
4 µg/mL: K. pneumoniae ATCC 10031; [17]
< 0.0312 µg/mL: S. pyogenes ATCC 19615 | E. faecalis ATCC 29212 | [3] | S. aureus ATCC 29213; [19] | S. pneumoniae ATCC 49619 | [7]
1 µg/mL: [4] | H. influenzae ATCC49247
0.5 µg/mL: S. aureus MRSA: USA300; [20]
> 32 µg/mL: A. baumannii IMP-4 | K. pneumoniae SHV-12 | K. pneumoniae KPC-2 | [6] | S. aureus USA600, GISA | E. coli CTX-M-14 | S. aureus erm A genotype | E. coli NDM-1 | E. coli TEM-1 | S. aureus MRSA: USA100

CC[C@H]1OC(=O)[C@H](C)C(=O)[C@H](C)[C@@H](O[C@@H]2OC(C)CC(N(C)C)C2O)[C@](C)(OC)C[C@@H](C)C(=O)[C@H](C)[C@H]2N(C/C=C/Cn3cnc(-c4ccccn4)c3)C(=O)O[C@]12C (stereo partly drawn) [FSM-100421]
1 µg/mL: [4]
2 µg/mL: S. aureus MRSA: USA300; [20] | H. influenzae ATCC49247
< 0.0312 µg/mL: S. pyogenes ATCC 19615 | E. faecalis ATCC 29212 | [3] | S. pneumoniae ATCC 49619
4 µg/mL: K. pneumoniae ATCC 10031; [17]
> 32 µg/mL: A. baumannii IMP-4 | K. pneumoniae SHV-12 | K. pneumoniae KPC-2 | P. aeruginosa ATCC 27853; [18] | [6] | S. aureus USA600, GISA | E. coli CTX-M-14 | S. aureus erm A genotype | E. coli NDM-1 | S. aureus MRSA: USA100
16 µg/mL: [5] | A. baumannii ATCC 19606; [22]
32 µg/mL: [1] | [2] | E. coli ATCC 25922; [21] | K. pneumoniae TEM-10 | E. coli TEM-1
0.0625 µg/mL: S. aureus ATCC 29213; [19] | [7]
